Results reported in the supplement of paper PMC13380429.
Counter-ions that a name gives are not always drawn. ± gives the standard deviation of the averaged measurements.

What was measured:
Vero E6 [1] = experiment: relative viability EC50 (midpoint between 100% and the lowest measured viability); higher = less toxic; details: 72 h
HepG2 [2] = experiment: as above; details: 72 h
Calu-3 [3] = experiment: as above; details: 72 h
Caco-2 [4] = experiment: as above; details: 72 h
U2OS [5] = experiment: as above; details: 72 h
Vero E6 [6] = experiment: drug sensitivity score (DSS) for viability; higher = more toxic; extreme values may be limits of the assay; details: 72 h
HepG2 [7] = experiment: as above; details: 72 h
Calu-3 [8] = experiment: as above; details: 72 h
Caco-2 [9] = experiment: as above; details: 72 h
U2OS [10] = experiment: as above; details: 72 h
[11] = tested on: A549-ACE2 infected with SARS-CoV-2; experiment: morphology score (similarity to uninfected cells); higher = more like uninfected cells; details: 24 h
[12] = tested on: A549-ACE2 infected with SARS-CoV-2; experiment: SARS-CoV-2 infection rate relative to DMSO; higher = more infection; details: 24 h
Vero E6 [13] = experiment: cell viability relative to DMSO; higher = less toxic; details: 72 h
HepG2 [14] = experiment: as above; details: 72 h
Calu-3 [15] = experiment: as above; details: 72 h
Caco-2 [16] = experiment: as above; details: 72 h
U2OS [17] = experiment: as above; details: 72 h
[18] = tested on: A549-ACE2 infected with SARS-CoV-2; experiment: cell count relative to DMSO; higher = less toxic; details: 24 h
A549-ACE2 [19] = experiment: drug-induced phospholipidosis relative to tamoxifen; higher = more phospholipidosis
A549-ACE2 [20] = experiment: phospholipidosis EC50; higher = less potent phospholipidosis inducer

C[C@H](N)Cc1c[nH]cn1 [alpha-methylhistamine-dihydrobromide-(S)-(+)]
Details | drug sensitivity score | relative viability EC50 [µM]
Caco-2 [4] | – | > 10
Caco-2 [9] | 0 | –
Calu-3 [3] | – | > 10
Calu-3 [8] | 0 | –
HepG2 [2] | – | > 10
HepG2 [7] | 0 | –
U2OS [5] | – | > 10
U2OS [10] | 0 | –
Vero E6 [1] | – | > 10
Vero E6 [6] | 0 | –

Details | SARS-CoV-2 infection rate, [12] [%] | cell count, [18] [%] | cell viability, Caco-2 [16] [%] | cell viability, Calu-3 [15] [%] | cell viability, HepG2 [14] [%] | cell viability, U2OS [17] [%] | cell viability, Vero E6 [13] [%] | morphology score, [11]
1 nM | – | – | 93.5 ± 9.1 | 100 ± 1.1 | 96.1 ± 6.5 | 98.9 | 94.7 | –
10 nM | – | – | 87.9 ± 3 | 105 ± 4 | 103 ± 1.3 | 96.9 | 96.5 | –
100 nM | – | – | 95.2 ± 2.3 | 98.2 ± 1.8 | 93 ± 1.9 | 101 | 92.7 | –
0.3 µM | 96 | 109 | – | – | – | – | – | 0.22
1000 nM | – | – | 98.5 ± 7.1 | 100 ± 4.2 | 100.2 ± 0.28 | 101 | 96.5 | –
3 µM | 101 | 104 | – | – | – | – | – | 0.16
10 µM | 90 | 104 | – | – | – | – | – | 0.28
10000 nM | – | – | 96.6 ± 0.28 | 101 ± 2.8 | 94.8 ± 0.71 | 99.2 | 105 | –
30 µM | 104 | 98 | – | – | – | – | – | -0.09

drug-induced phospholipidosis [%], A549-ACE2 [19]
Details | 0.3 µM | 0.833333 µM | 3.33333 µM | 6.66667 µM | 10 µM | 30 µM
24 h | 1.4 | -2.09 | -0.4 | -0.13 | -1.06 | 2.88
48 h | 2.76 | -1.54 | -1.15 | -0.6 | 0.05 | 3.3
72 h | 2.88 | -1.77 | -1.17 | -0.807 | 0.33 | 4.01

CC(=O)c1cc([N+](=O)[O-])c(Sc2ccc(F)cc2F)s1
Details | drug sensitivity score | relative viability EC50 [µM]
Caco-2 [4] | – | 1.81
Caco-2 [9] | 5.8 | –
Calu-3 [3] | – | > 10
Calu-3 [8] | 0 | –
HepG2 [7] | 2.1 | –
U2OS [5] | – | > 10
U2OS [10] | 0.5 | –
Vero E6 [1] | – | > 10
Vero E6 [6] | 0 | –

Details | SARS-CoV-2 infection rate, [12] [%] | cell count, [18] [%] | cell viability, Caco-2 [16] [%] | cell viability, Calu-3 [15] [%] | cell viability, HepG2 [14] [%] | cell viability, U2OS [17] [%] | cell viability, Vero E6 [13] [%] | morphology score, [11]
1 nM | – | – | 98 | 91 | 110 | 95.3 | 108 | –
10 nM | – | – | 96.6 | 95.3 | 105 | 99.3 | 98.8 | –
100 nM | – | – | 103 | 105 | 106 | 95.2 | 101 | –
0.3 µM | 98 | 99 | – | – | – | – | – | 0.06
1000 nM | – | – | 87.4 | 98.6 | 100 | 101 | 98.1 | –
3 µM | 106 | 100 | – | – | – | – | – | -0.18
10 µM | 71 | 81 | – | – | – | – | – | 0.38
10000 nM | – | – | 31.8 | 101 | 58.5 | 80 | 95.6 | –
30 µM | 55 | 58 | – | – | – | – | – | 0.17

drug-induced phospholipidosis [%], A549-ACE2 [19]
Details | 0.3 µM | 0.833333 µM | 3.33333 µM | 6.66667 µM | 30 µM
24 h | 3.19 | -2.16 | 10.1 | 11.8 | 19.3
48 h | 2.73 | -1.61 | 2.36 | 16.5 | –
72 h | 0.714 | -1.68 | -2.13 | 11.8 | 23.5

Cn1nc(C(C)(C)C)cc1C(=O)N[C@@H](Cc1cccc(Cl)c1)C(=O)NCC#N [Cathepsin Inhibitor 1]
Details | SARS-CoV-2 infection rate, [12] [%] | cell count, [18] [%] | morphology score, [11]
0.3 µM | 56 | 117 | 0.72
3 µM | 33 | 125 | 0.85
10 µM | 20 | 121 | 0.91
30 µM | 17 | 121 | 0.91

drug-induced phospholipidosis [%], A549-ACE2 [19]
Details | 0.3 µM | 0.833333 µM | 3.33333 µM | 6.66667 µM | 10 µM | 30 µM
24 h | 6.59 | 1.92 | 9.11 | 12.3 | 12.3 | 38.3
48 h | 3.88 | 2.55 | 8.4 | 13.7 | 15.4 | 38.9
72 h | 7.75 | 3.09 | 6.53 | 12.2 | 10.8 | 42

Cc1nc(Nc2cnn(C3CCNCC3)c2)nc2c1N(C)C(=O)c1cc3ccccc3cc1N2C [HTH-01-015]
Details | drug sensitivity score | relative viability EC50 [µM]
Caco-2 [4] | – | > 10
Caco-2 [9] | 0.6 | –
Calu-3 [8] | 1.6 | –
HepG2 [7] | 1 | –
U2OS [10] | 2 | –
Vero E6 [6] | 1.2 | –

Details | SARS-CoV-2 infection rate [%] | cell count [%] | cell viability [%] | morphology score | phospholipidosis EC50 [µM]
A549-ACE2 [20], 24 h | – | – | – | – | 3.28
A549-ACE2 [20], 48 h | – | – | – | – | 3.72
Caco-2 [16], 1 nM | – | – | 94.7 | – | –
Caco-2 [16], 10 nM | – | – | 99.7 | – | –
Caco-2 [16], 100 nM | – | – | 97.7 | – | –
Caco-2 [16], 1000 nM | – | – | 103 | – | –
Caco-2 [16], 10000 nM | – | – | 77.7 | – | –
Calu-3 [15], 1 nM | – | – | 97.1 | – | –
Calu-3 [15], 10 nM | – | – | 108 | – | –
Calu-3 [15], 100 nM | – | – | 99.1 | – | –
Calu-3 [15], 1000 nM | – | – | 108 | – | –
Calu-3 [15], 10000 nM | – | – | 59.4 | – | –
HepG2 [14], 1 nM | – | – | 106 | – | –
HepG2 [14], 10 nM | – | – | 89.3 | – | –
HepG2 [14], 100 nM | – | – | 101 | – | –
HepG2 [14], 1000 nM | – | – | 109 | – | –
HepG2 [14], 10000 nM | – | – | 67.7 | – | –
U2OS [17], 1 nM | – | – | 101 | – | –
U2OS [17], 10 nM | – | – | 108 | – | –
U2OS [17], 100 nM | – | – | 100 | – | –
U2OS [17], 1000 nM | – | – | 107 | – | –
U2OS [17], 10000 nM | – | – | 53.1 | – | –
Vero E6 [13], 1 nM | – | – | 106 | – | –
Vero E6 [13], 10 nM | – | – | 106 | – | –
Vero E6 [13], 100 nM | – | – | 104 | – | –
Vero E6 [13], 1000 nM | – | – | 98.5 | – | –
Vero E6 [13], 10000 nM | – | – | 74.1 | – | –
[11], 0.1 µM | – | – | – | -0.27 | –
[11], 0.3 µM | – | – | – | 0.2 | –
[11], 1 µM | – | – | – | 0.05 | –
[11], 3 µM | – | – | – | 0.67 | –
[12], 0.1 µM | 105 | – | – | – | –
[12], 0.3 µM | 105 | – | – | – | –
[12], 1 µM | 100 | – | – | – | –
[12], 3 µM | 77 | – | – | – | –
[18], 0.1 µM | – | 97 | – | – | –
[18], 0.3 µM | – | 102 | – | – | –
[18], 1 µM | – | 103 | – | – | –
[18], 3 µM | – | 99 | – | – | –

drug-induced phospholipidosis [%], A549-ACE2 [19]
Details | 0.3 µM | 0.833333 µM | 3.33333 µM | 6.66667 µM | 10 µM | 30 µM
24 h | 2.9 | 6.1 | 51.1 | 120 | 118 | 24.5
48 h | 6.71 | 6.12 | 41.5 | 172 | 169 | –
72 h | 6.1 | 4.78 | 42.6 | – | – | –
